Key:
[1] = tested on: prostate cancer cell line DU145; conditions: DU145 in vitro; cited from earlier work
[2] = tested on: human HDAC enzymes from nuclear extract of HeLa cells; assay: HDAC inhibitor screening assay (HeLa nuclear extract); format: biochemical; conditions: 6-PN 5 μM, 8-PN 10 μM
Experimental: FIG. 2: In silico docking analysis with 6-PN and 8-PN illustrates the inhibitory potential on human-derived HDACs of class I and II. (A) Results of the in silico docking analysis of 6-PN and 8-PN with crystal structures of HDAC2 (class I) and HDAC4 (class II). […] Both molecules are predicted to interact with the zinc ion as well as other residues of the catalytic center. Docking analyses of 6-PN and 8-PN in the individual HDAC binding pockets were performed using GOLD (version 4.1.2) and MOE (version 2009.10). (B) Overall HDAC inhibition in cellular extracts of the human cell line HeLa by increasing concentrations of 6-PN and 8-PN (5 μM, 10 μM, 20 μM, 50 μM and 100 μM). As reference inhibitor 100 μM SAHA was used. Every concentration was tested three times in triplicates. Shown are the mean±SD. (C) Specific fluometric profiling assay using recombinant human HDACs of classes I, II and IV. Specific inhibition values were generated for the treatment with 100 μM 6-PN and 8-PN. TSA was used as reference inhibitor (HDAC1, 2, 3, 6, 10, 11: 10 nM; HDAC4, 8, 9: 1 μM; HDAC5, 7:10 μM). The inhibition vales for every HDAC were yielded by one experiment performed in duplicates Shown are the mean±S.A. […]

[3] = tested on: primary human fibroblasts (FF868); assay: MUH proliferation assay, fibroblasts; format: cell-based; conditions: 6-PN, 8-PN 0.1 μM to 100 μM; TSA, SAHA 100 μM
Experimental: (§1) FIG. 5: real time cell monitoring of BLM and SK-MEL-28 melanoma cells treated with 6-PN and 8-PN. (A) BML and SK-MEL-28 cells were treated 24 hours after seeding with different concentrations of 6-PN and 8-PN (20 μM, 50 μM and 100 μM) over a 104 hour time period. The cellular impedance was measured over the entire observation time using the xCELLigence™ SP system and is depicted by the cell index (CI). All CI-values were normalized shortly before the treatment started. […] As a positive control, Triton X-100 0.1% was used to induce cell death. Shown are the mean±SD of three independent experiments, each performed in triplicates (B, C). […] Shown are the mean±SD; the experiments were performed in quadruplicates. (D) The MUH proliferation assay was repeated unter the same treatment conditions on primary human fibroblasts (FF868) and melanocytes (HEM1).
(§2) The cells were seeded in triplicates in 96-well plates at a density of 2,500 cells per well in 50 μl medium (5×10^4 cells per milliliter). After 24 hours, the medium was replaced by medium containing 6-PN, 8-PN (dissolved in DMSO), TSA (dissolved in EtOH) or SAHA (dissolved in DMSO) at the concentrations to be tested with or without the addition of the necrosis inhibitor IM-54 at 5 μM (Calbiochem, Darmstadt, Germany). Cells treated with culture medium without or with DMSO served as controls. The assay was started following an incubation of 24 hours. […] Plates were incubated at 37° C. for 1 hour and measured in a Fluoroskan II (Lab Systems, Helsinki, Finland) with a […]. The intensity of fluorescence indicates the number of viable cells in the wells.
(§3) Next it was asked whether the PNs also influence the proliferation of benign cells. To this end, human fibroblasts (FF) and foreskin melanocytes (HEM1) were treated with the same concentrations of 6-PN and 8-PN, and proliferation was assessed using the proliferation assay as described above.

[4] = tested on: MCF7-cells; conditions: cited from earlier work
[5] = tested on: foreskin melanocytes (HEM1); assay: MUH proliferation assay, melanocytes; format: cell-based; conditions: 6-PN, 8-PN at higher concentrations (0.1 μM to 100 μM tested); TSA, SAHA 100 μM
Experimental: as §1, §2, §3

SMILES: CC(C)=CCc1c(O)cc(O)c2c1OC(c1ccc(O)cc1)CC2=O (centres unmarked) [8-PN, 5,7-Dihydroxy-2-(4-hydroxy-phenyl)-8-(3-methyl-but-2-enyl)-chroman-4-one]
- antiproliferative effects [1]: antiproliferative effects
- HDAC inhibitory effect at low concentration [2]: showed inhibitory effects
- fibroblast proliferation [3]: hardly affected
- apoptosis [4]: induces the apoptosis
- melanocyte proliferation [5]: markedly decreased
